{"source": "ChEMBL document CHEMBL1127517", "about": "(J Med Chem, 1994)", "key": {"Rattus norvegicus [1]": {"tested_on": "Rattus norvegicus", "assay": "Distribution of radio activity in tissues of unfasted male rats was measured at 60 min of time in blood after intravenous administration", "type": "ADME, organism-based", "settings": "in vivo, 1 h"}, "Rattus norvegicus [2]": {"tested_on": "Rattus norvegicus", "assay": "Distribution of radio activity in tissues of unfasted male rats was measured at 60 min of time in brain after intravenous administration", "type": "ADME, organism-based", "settings": "in vivo, 1 h"}, "Rattus norvegicus [3]": {"tested_on": "Rattus norvegicus", "assay": "Distribution of radio activity in tissues of unfasted male rats was measured at 60 min of time in heart after intravenous administration", "type": "ADME, organism-based", "settings": "in vivo, 1 h"}, "Rattus norvegicus [4]": {"tested_on": "Rattus norvegicus", "assay": "Distribution of radio activity in tissues of unfasted male rats was measured at 60 min of time in kidney after intravenous administration", "type": "ADME, organism-based", "settings": "in vivo, 1 h"}, "Rattus norvegicus [5]": {"tested_on": "Rattus norvegicus", "assay": "Distribution of radio activity in tissues of unfasted male rats was measured at 60 min of time in liver after intravenous administration", "type": "ADME, organism-based", "settings": "in vivo, 1 h"}, "Rattus norvegicus [6]": {"tested_on": "Rattus norvegicus", "assay": "Distribution of radio activity in tissues of unfasted male rats was measured at 60 min of time in lung after intravenous administration", "type": "ADME, organism-based", "settings": "in vivo, 1 h"}, "Rattus norvegicus [7]": {"tested_on": "Rattus norvegicus", "assay": "Distribution of radio activity in tissues of unfasted male rats was measured at 60 min of time in muscle after intravenous administration", "type": "ADME, organism-based, Muscle tissue", "settings": "in vivo, 1 h"}, "Rattus norvegicus [8]": {"tested_on": "Rattus norvegicus", "assay": "Distribution of radio activity in tissues of unfasted male rats was measured at 2 min of time in thyroid after intravenous administration", "type": "ADME, organism-based, Thyroid gland", "settings": "in vivo"}, "Rattus norvegicus [9]": {"tested_on": "Rattus norvegicus", "assay": "Distribution of radio activity in tissues of unfasted male rats was measured at 30 min of time in blood after intravenous administration", "type": "ADME, organism-based", "settings": "in vivo, 0.5 h"}, "Rattus norvegicus [10]": {"tested_on": "Rattus norvegicus", "assay": "Distribution of radio activity in tissues of unfasted male rats was measured at 30 min of time in brain after intravenous administration", "type": "ADME, organism-based", "settings": "in vivo, 0.5 h"}, "Rattus norvegicus [11]": {"tested_on": "Rattus norvegicus", "assay": "Distribution of radio activity in tissues of unfasted male rats was measured at 30 min of time in heart after intravenous administration", "type": "ADME, organism-based", "settings": "in vivo, 0.5 h"}, "Rattus norvegicus [12]": {"tested_on": "Rattus norvegicus", "assay": "Distribution of radio activity in tissues of unfasted male rats was measured at 60 min of time in skin after intravenous administration", "type": "ADME, organism-based", "settings": "in vivo, 1 h"}, "Rattus norvegicus [13]": {"tested_on": "Rattus norvegicus", "assay": "Distribution of radio activity in tissues of unfasted male rats was measured at 60 min of time in spleen after intravenous administration", "type": "ADME, organism-based", "settings": "in vivo, 1 h"}, "Rattus norvegicus [14]": {"tested_on": "Rattus norvegicus", "assay": "Distribution of radio activity in tissues of unfasted male rats was measured at 60 min of time in thyroid after intravenous administration", "type": "ADME, organism-based, Thyroid gland", "settings": "in vivo, 1 h"}, "Rattus norvegicus [15]": {"tested_on": "Rattus norvegicus", "assay": "Distribution of radio activity in tissues of unfasted male rats was measured as regional uptake at 120 min of time in cortex after intravenous administration", "type": "ADME, organism-based", "settings": "in vivo, 2 h"}, "Rattus norvegicus [16]": {"tested_on": "Rattus norvegicus", "assay": "Distribution of radio activity in tissues of unfasted male rats was measured as regional uptake at 120 min of time in hippocampus after intravenous administration", "type": "ADME, organism-based", "settings": "in vivo, 2 h"}, "Rattus norvegicus [17]": {"tested_on": "Rattus norvegicus", "assay": "Distribution of radio activity in tissues of unfasted male rats was measured as regional uptake at 120 min of time in striatum after intravenous administration", "type": "ADME, organism-based", "settings": "in vivo, 2 h"}, "Rattus norvegicus [18]": {"tested_on": "Rattus norvegicus", "assay": "Distribution of radio activity in tissues of unfasted male rats was measured as regional uptake at 2 min of time in ST/CB after intravenous administration", "type": "ADME, organism-based", "settings": "in vivo"}, "Rattus norvegicus [19]": {"tested_on": "Rattus norvegicus", "assay": "Distribution of radio activity in tissues of unfasted male rats was measured as regional uptake at 2 min of time in cerebellum after intravenous administration", "type": "ADME, organism-based", "settings": "in vivo"}, "Rattus norvegicus [20]": {"tested_on": "Rattus norvegicus", "assay": "Distribution of radio activity in tissues of unfasted male rats was measured as regional uptake at 2 min of time in cortex after intravenous administration", "type": "ADME, organism-based", "settings": "in vivo"}, "Rattus norvegicus [21]": {"tested_on": "Rattus norvegicus", "assay": "Distribution of radio activity in tissues of unfasted male rats was measured as regional uptake at 2 min of time in hippocampus after intravenous administration", "type": "ADME, organism-based", "settings": "in vivo"}, "Rattus norvegicus [22]": {"tested_on": "Rattus norvegicus", "assay": "Distribution of radio activity in tissues of unfasted male rats was measured as regional uptake at 2 min of time in striatum after intravenous administration", "type": "ADME, organism-based", "settings": "in vivo"}, "Rattus norvegicus [23]": {"tested_on": "Rattus norvegicus", "assay": "Distribution of radio activity in tissues of unfasted male rats was measured as regional uptake at 30 min of time in ST/CB after intravenous administration", "type": "ADME, organism-based", "settings": "in vivo, 0.5 h"}, "Rattus norvegicus [24]": {"tested_on": "Rattus norvegicus", "assay": "Distribution of radio activity in tissues of unfasted male rats was measured as regional uptake at 30 min of time in cerebellum after intravenous administration", "type": "ADME, organism-based", "settings": "in vivo, 0.5 h"}, "Rattus norvegicus [25]": {"tested_on": "Rattus norvegicus", "assay": "Distribution of radio activity in tissues of unfasted male rats was measured as regional uptake at 30 min of time in cortex after intravenous administration", "type": "ADME, organism-based", "settings": "in vivo, 0.5 h"}, "Rattus norvegicus [26]": {"tested_on": "Rattus norvegicus", "assay": "Distribution of radio activity in tissues of unfasted male rats was measured as regional uptake at 30 min of time in hippocampus after intravenous administration", "type": "ADME, organism-based", "settings": "in vivo, 0.5 h"}, "Rattus norvegicus [27]": {"tested_on": "Rattus norvegicus", "assay": "Distribution of radio activity in tissues of unfasted male rats was measured as regional uptake at 30 min of time in striatum after intravenous administration", "type": "ADME, organism-based", "settings": "in vivo, 0.5 h"}, "Rattus norvegicus [28]": {"tested_on": "Rattus norvegicus", "assay": "Distribution of radio activity in tissues of unfasted male rats was measured as regional uptake at 60 min of time in ST/CB after intravenous administration", "type": "ADME, organism-based", "settings": "in vivo, 1 h"}, "Rattus norvegicus [29]": {"tested_on": "Rattus norvegicus", "assay": "Distribution of radio activity in tissues of unfasted male rats was measured as regional uptake at 60 min of time in cerebellum after intravenous administration", "type": "ADME, organism-based", "settings": "in vivo, 1 h"}, "Rattus norvegicus [30]": {"tested_on": "Rattus norvegicus", "assay": "Distribution of radio activity in tissues of unfasted male rats was measured at 2 min of time in spleen after intravenous administration", "type": "ADME, organism-based", "settings": "in vivo"}, "Rattus norvegicus [31]": {"tested_on": "Rattus norvegicus", "assay": "Distribution of radio activity in tissues of unfasted male rats was measured at 2 min of time in liver after intravenous administration", "type": "ADME, organism-based", "settings": "in vivo"}}, "data": [{"smiles": "COC(=O)C1C(c2ccc(Cl)cc2)CC2CCC1N2C/C=C/I", "note": "(stereo unspecified)", "values": [{"measurement": "Injected dose/organ", "setting": "Rattus norvegicus [1]", "value": 5.24, "unit": "%"}, {"measurement": "Injected dose/organ", "setting": "Rattus norvegicus [2]", "value": 0.28, "unit": "%"}, {"measurement": "Injected dose/organ", "setting": "Rattus norvegicus [3]", "value": 0.19, "unit": "%"}, {"measurement": "Injected dose/organ", "setting": "Rattus norvegicus [4]", "value": 0.58, "unit": "%"}, {"measurement": "Injected dose/organ", "setting": "Rattus norvegicus [5]", "value": 1.97, "unit": "%"}, {"measurement": "Injected dose/organ", "setting": "Rattus norvegicus [6]", "value": 0.4, "unit": "%"}, {"measurement": "Injected dose/organ", "setting": "Rattus norvegicus [7]", "value": 12.14, "unit": "%"}, {"measurement": "Injected dose/organ", "setting": "Rattus norvegicus [8]", "value": 0.06, "unit": "%"}, {"measurement": "Injected dose/organ", "setting": "Rattus norvegicus [9]", "value": 7.12, "unit": "%"}, {"measurement": "Injected dose/organ", "setting": "Rattus norvegicus [10]", "value": 0.58, "unit": "%"}, {"measurement": "Injected dose/organ", "setting": "Rattus norvegicus [11]", "value": 0.29, "unit": "%"}, {"measurement": "Injected dose/organ", "setting": "Rattus norvegicus [12]", "value": 23.9, "unit": "%"}, {"measurement": "Injected dose/organ", "setting": "Rattus norvegicus [13]", "value": 0.12, "unit": "%"}, {"measurement": "Injected dose/organ", "setting": "Rattus norvegicus [14]", "value": 0.97, "unit": "%"}, {"measurement": "Dose/g", "setting": "Rattus norvegicus [15]", "value": 0.05, "unit": "%"}, {"measurement": "Dose/g", "setting": "Rattus norvegicus [16]", "value": 0.038, "unit": "%"}, {"measurement": "Dose/g", "setting": "Rattus norvegicus [17]", "value": 0.61, "unit": "%"}, {"measurement": "Dose/g", "setting": "Rattus norvegicus [18]", "value": 1.18, "unit": "%"}, {"measurement": "Dose/g", "setting": "Rattus norvegicus [19]", "value": 0.97, "unit": "%"}, {"measurement": "Dose/g", "setting": "Rattus norvegicus [20]", "value": 1.15, "unit": "%"}, {"measurement": "Dose/g", "setting": "Rattus norvegicus [21]", "value": 0.84, "unit": "%"}, {"measurement": "Dose/g", "setting": "Rattus norvegicus [22]", "value": 1.15, "unit": "%"}, {"measurement": "Dose/g", "setting": "Rattus norvegicus [23]", "value": 6.91, "unit": "%"}, {"measurement": "Dose/g", "setting": "Rattus norvegicus [24]", "value": 0.23, "unit": "%"}, {"measurement": "Dose/g", "setting": "Rattus norvegicus [25]", "value": 0.22, "unit": "%"}, {"measurement": "Dose/g", "setting": "Rattus norvegicus [26]", "value": 0.26, "unit": "%"}, {"measurement": "Dose/g", "setting": "Rattus norvegicus [27]", "value": 1.67, "unit": "%"}, {"measurement": "Dose/g", "setting": "Rattus norvegicus [28]", "value": 15.9, "unit": "%"}, {"measurement": "Dose/g", "setting": "Rattus norvegicus [29]", "value": 0.077, "unit": "%"}, {"measurement": "Injected dose/organ", "setting": "Rattus norvegicus [30]", "value": 0.41, "unit": "%"}, {"measurement": "Injected dose/organ", "setting": "Rattus norvegicus [31]", "value": 11.77, "unit": "%"}]}]}
